# Source: patent US5002933A, “Hexapeptide and medicinal preparation produced from it to treat erosive and ulcerative lesions of gastrointestinal tract” (priority 1987, dated 1991)
# Square brackets hold non-standard residues; d marks the D form. Ends that are not written are not given here.
# What was measured:
# [1] = tested on: cysteamine-induced duodenal ulcer; test: cysteamine-induced duodenal ulcer, oral administration; type: in vivo, rats; conditions: for Lesion scoring: given immediately and 6 h after cysteamine, score 0-4, 24 h; for Incidence: ratio of animals with ulcer to survivals; for Ulcer index: severity of lesion + doubled incidence; for Ulcer index reduction, %: versus control group
# Experimental: The efficacy of the proposed hexapeptide has been studied on experimental animals. Vister male rats were used to compare the therapeutic efficacy of the proposed preparation with that of the known preparations.
# Duodenal ulcer was induced in experimental animals by subcutaneous administration of cysteamine hydrochloride in a dose of 350 mg per kg body weight (in 0.5 ml of physiological saline). The proposed preparation was given to the rats immediately and in 6 hours following the administration of the provoking agent. The proposed hexapeptide was given into the stomach through a gastric tube in doses of 10 and 100 mcg/kg; the known hexapeptide (U.S. Pat. No. 4,565,705) was given in a dose of 100 mcg/kg (cimetidine in a dose 10 mg/kg) in 0.5 ml of a 3 percent milk (five-fold diluted in physiological saline). Control animals were given 0.5 ml of a 3 percent milk diluted in a 5-fold volume of physiological saline immediately after administration of cysteamine hydrochloride and 6 hours later. The animals were sacrificed by decapitation in 24 hours after administration of cysteamine hydrochloride and the condition of the duodenal mucosa was assessed in them.
# The severity of lesion was determined for each group of the rats using the following scoring system: 0--absense of ulceration; 1--erosion; 2--single ulcer; 3--multiple ulcers; 4--perforating ulcer. Besides, the incidence of lesion was determined in each group: the ratio of the animals with ulcer to the total number of survivals by the end of the experiment was determined. A conventional ulcer index (severity of lesion+doubled incidence of affections) was thus derived as the summary involvement index.
# The obtained findings were treated statistically using the Student t-criterion (for severity of lesion) and Pirson X^2 criterion (for the incidence). The differences at the level of 95 percent significance were taken as trustworthy (P<0.05).
# [2] = tested on: indomethacin-induced ulcers of the small intestine; test: indomethacin-induced ulcers of the small intestine; type: in vivo, rats; conditions: for Average number of ulcers: 30-cm distal small intestine, 24 h after indomethacin 20 mg/kg
# Experimental: The proposed hexapeptide was also studied in experiments with indomethacin-induced ulcers of the small intestine. The efficacy of the proposed hexapeptide was compared with that of sulfasalazine. Indomethacin was given to the rats into the stomach through a tube in a dose of 20 mg/kg, in the form of a suspension in 0.5 ml of physiological saline. The proposed hexapeptide or sulfasalazine were given in doses of 100 μg/kg or 200 mg/kg respectively immediately after administration of indomethacin or 6 hours later. Indomethacin was given with 0.5 ml of a 3% milk diluted in 5 volumes of physiological saline. The same amount of the milk solution was given to the control animals. The rats were decapitated in 24 hours after the administration of indomethacin and the number of ulcers on the mucosa of a 30-cm long distal small intestine was counted. […] The average number of ulcers was determined for each group of the animals.
# The findings were processed statistically using the Student t-criterion. Differences at the significance level of 95 % were taken as trustworthy (at P<0.05).
# [3] = acute toxicity tests; type: in vivo
# [4] = blood cell composition and haemodynamic indices in the experiments; type: in vivo; conditions: in the experiments with the proposed hexapeptide
# [5] = solubility of the hexapeptide powder; type: physicochemical
molecule,measurement,setting,value
"CN/C(=N/CCSCc1nc[nH]c1C)NC#N [cimetidine, reference compound]",Lesion scoring,[1]; 10 mg/kg per os,1.00
same,Incidence,[1]; 10 mg/kg per os,0.33
same,Ulcer index,[1]; 10 mg/kg per os,1.66
same,"Ulcer index reduction, %",[1]; 10 mg/kg per os,57%
"O=C(O)c1cc(/N=N/c2ccc(S(=O)(=O)Nc3ccccn3)cc2)ccc1O [sulfasalazine, reference compound]",decrease of the number of ulcers in the intestine,"[2]; 200 mg/kg, versus control",46%
same,Average number of ulcers,[2]; sulfasalazine 200 mg/kg,27.50 ± 5.28
Y[dA]GFLE [proposed hexapeptide],Lesion scoring,[1]; 10 μg/kg per os,1.60
same,Incidence,[1]; 10 μg/kg per os,0.80
same,Ulcer index,[1]; 10 μg/kg per os,3.20
same,"Ulcer index reduction, %",[1]; 10 μg/kg per os,18%
same,Lesion scoring,[1]; 100 μg/kg per os,0.83
same,Incidence,[1]; 100 μg/kg per os,0.31
same,Ulcer index,[1]; 100 μg/kg per os,1.45
same,"Ulcer index reduction, %",[1]; 100 μg/kg per os,63%
same,anti-ulcer activity relative to cimetidine,"[1]; dose comparison, 100 μg/kg versus cimetidine 10 mg/kg, duodenum",100 times
same,Average number of ulcers,[2]; 100 μg/kg,23.40 ± 5.36
same,decrease of the average number of ulcers in the distal small intestine,"[2]; 100 μg/kg, versus control",52%
same,anti-ulcer activity relative to sulfasalazine,"[2]; dose comparison, 100 μg/kg versus sulfasalazine 200 mg/kg, small intestine",2000 times
same,LD50,[3],250 mg/kg
same,changes in the cell composition of the blood,[4],No changes
same,changes in the main haemodynamic indices,[4],No changes
same,solubility,"[5]; distilled water, physiological saline, alcohol",readily soluble
same,solubility,"[5]; ether, ethyl actate, benzene, or hexane",insoluble
